Article PMC10374545, “A small molecule inhibitor of PTP1B and PTPN2 enhances T cell anti-tumor immunity” (Nature Communications, 2023)
“And” between values parts separate entries of the source, which are not always exact repeats. Equal values may be shown once.

Key:
PTP1B = target: T1, PTP1B (Homo sapiens, UniProt P18031); test: Jump-dilution assay; assay type: biochemical; details: 30 min preincubation, 50-fold dilution into 100 µM DiFMUP
T1 construct: PTP1B, residues 1-321; made in house; host or cells: E. coli BL21(DE3)
T1 sequence (P18031 1-321): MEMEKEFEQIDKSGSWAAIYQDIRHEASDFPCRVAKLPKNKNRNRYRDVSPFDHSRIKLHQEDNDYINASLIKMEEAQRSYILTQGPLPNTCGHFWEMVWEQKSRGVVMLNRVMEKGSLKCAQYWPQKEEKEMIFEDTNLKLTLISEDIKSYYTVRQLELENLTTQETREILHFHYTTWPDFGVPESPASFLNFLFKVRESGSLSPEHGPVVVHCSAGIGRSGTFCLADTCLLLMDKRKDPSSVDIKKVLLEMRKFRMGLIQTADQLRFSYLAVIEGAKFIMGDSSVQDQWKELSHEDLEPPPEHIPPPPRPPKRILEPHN
Method: (§1) The reaction was allowed to proceed for 10 min under room temperature and was quenched by addition of a 160 µM solution of bpV(Phen). The fluorescence signal was measured using a CLARIOstar Plus Microplate Spectrophotometer (BMG Labtech) using excitation and emission wavelengths of 340 nm and 450 nm, respectively. Data were fitted using Prism GraphPad 9.2.0.

PTPN2 = target: T2, PTPN2 (Homo sapiens, UniProt P17706); test: Jump-dilution assay; assay type: biochemical; details: 30 min preincubation, 50-fold dilution into 100 µM DiFMUP
T2 construct: PTPN2, residues 1-387; made in house; host or cells: E. coli BL21(DE3)
T2 sequence (P17706 1-387 isoform P17706-2): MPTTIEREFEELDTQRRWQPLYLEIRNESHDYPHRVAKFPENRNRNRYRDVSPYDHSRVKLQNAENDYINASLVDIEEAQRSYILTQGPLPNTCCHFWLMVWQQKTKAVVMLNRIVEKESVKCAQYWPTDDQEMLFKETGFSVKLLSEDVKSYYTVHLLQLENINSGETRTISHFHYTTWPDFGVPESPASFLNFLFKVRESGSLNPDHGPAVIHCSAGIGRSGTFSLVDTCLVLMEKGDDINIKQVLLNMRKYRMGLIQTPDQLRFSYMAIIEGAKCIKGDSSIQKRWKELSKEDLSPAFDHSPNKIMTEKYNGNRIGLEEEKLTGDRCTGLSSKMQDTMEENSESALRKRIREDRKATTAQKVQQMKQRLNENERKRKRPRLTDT
Method: as §1

AT3-OVA mammary tumors = test: AT3-OVA mammary tumor growth in C57BL/6 mice; assay type: in vivo, mouse; set-up: Tumour weights, individual mice: unit not given here; details: for Tumour growth, individual mice: Figure 5A; for Tumour growth, single mice: sizes in mm^2, Fig. 3A, listed as CMP-182, 10 mg/kg
Method: (§2) Male or female mice were injected subcutaneously with 5 × 10^5 MC38 tumor cells resuspended in 100 μl D-PBS into the flank. Alternatively, female mice were injected orthotopically with 5 × 10^5 AT3 or AT3-OVA or PTPN2-deleted AT3 or AT3-OVA tumor cells resuspended in 20 μl D-PBS into the fourth mammary fat pad. Tumor sizes were measured in two dimensions (mm^2) using electronic callipers two to three times per week as soon as tumors were palpable (20–25 mm^2).

AT3 mammary tumors = test: AT3 tumor growth in Lck-Cre;Ptpn2fl/fl mice; assay type: in vivo, mouse; details: 10 mg/kg i.v., beyond PTPN2 deletion in T cells
Method: as §2

CC(C)(O)CCOc1ccc2cc(O)c(N3CC(=O)NS3(=O)=O)c(F)c2c1 [Compound 182, 5-(1-Fluoro-3-hydroxy-7-(3-hydroxy-3-methylbutoxy)naphthalen-2-yl)−1,2,5-thiadiazolidin-3-one 1,1-dioxide]
reversibility of inhibition (PTP1B): reversible
reversibility of inhibition (PTPN2): reversible
repression of tumor growth, dosing every two days compared with every three days (AT3-OVA mammary tumors; 10 mg/kg i.v.): more pronounced
AT3-OVA tumor growth, administration every three days (AT3-OVA mammary tumors; 10 mg/kg i.v., days 9-27, Supplementary Fig. 8): represses
growth of AT3-OVA mammary tumors (AT3-OVA mammary tumors; 10 mg/kg intravenously every 2 days or every 3 days): effectively repressed the growth
Tumour weight d21 (median) (AT3-OVA mammary tumors; AT-3-OVA, Figure 3A, column B, n=8): 100.0, n=8
Tumour weights, individual mice (AT3-OVA mammary tumors; C57BL/6, CMP-182 10 mg, n=8, Figure 5B): 126 and 340 and 344 and 76 and 85 and 190 and 183 and 281
Tumour growth, individual mice (AT3-OVA mammary tumors; C57BL/6, CMP-182 10 mg, n=8, day 0 post injection, in mm2): 38.86 and 38.76 and 36.96 and 20 and 19.89 and 39.65 and 32.33 and 44.53
Tumour growth, individual mice (AT3-OVA mammary tumors; C57BL/6, CMP-182 10 mg, n=8, day 2 post injection, in mm2): 46.62 and 45 and 45.75 and 21.2 and 22.26 and 46.15 and 36.4 and 52
Tumour growth, individual mice (AT3-OVA mammary tumors; C57BL/6, CMP-182 10 mg, n=8, day 4 post injection, in mm2): 40.6 and 37.95 and 45.6 and 22.4 and 21.42 and 37.21 and 29.5 and 55.61
Tumour growth, individual mice (AT3-OVA mammary tumors; C57BL/6, CMP-182 10 mg, n=8, day 7 post injection, in mm2): 35.1 and 40.02 and 49.4 and 25.2 and 27.54 and 44.85 and 32.5 and 53.6
Tumour growth, individual mice (AT3-OVA mammary tumors; C57BL/6, CMP-182 10 mg, n=8, day 9 post injection, in mm2): 40.2 and 41.76 and 56.44 and 28.35 and 33.04 and 52.56 and 37.95 and 65.25
Tumour growth, individual mice (AT3-OVA mammary tumors; C57BL/6, CMP-182 10 mg, n=8, day 12 post injection, in mm2): 40.8 and 47.74 and 66.43 and 30.15 and 33.63 and 55.5 and 42 and 70.2
Tumour growth, individual mice (AT3-OVA mammary tumors; C57BL/6, CMP-182 10 mg, n=8, day 15 post injection, in mm2): 42 and 55.44 and 75.75 and 31.5 and 34.22 and 60.84 and 45.26 and 76
Tumour size AT-3-OVA (group mean) (AT3-OVA mammary tumors; C57BL/6 n=8, time point 6, in mm2): 21.8
Tumour size AT-3-OVA (group mean) (AT3-OVA mammary tumors; C57BL/6 n=8, time point 8, in mm2): 21.97
Tumour size AT-3-OVA (group mean) (AT3-OVA mammary tumors; C57BL/6 n=8, time point 10, in mm2): 23.3
Tumour size AT-3-OVA (group mean) (AT3-OVA mammary tumors; C57BL/6 n=8, time point 13, in mm2): 25.76
Tumour size AT-3-OVA (group mean) (AT3-OVA mammary tumors; C57BL/6 n=8, time point 15, in mm2): 29.09
Tumour size AT-3-OVA (group mean) (AT3-OVA mammary tumors; C57BL/6 n=8, time point 17, in mm2): 31.79
Tumour size AT-3-OVA (group mean) (AT3-OVA mammary tumors; C57BL/6 n=8, time point 19, in mm2): 33.9
Tumour size AT-3-OVA (group mean) (AT3-OVA mammary tumors; C57BL/6 n=8, time point 21, in mm2): 36.99
Tumour size AT-3-OVA (group mean) (AT3-OVA mammary tumors; C57BL/6 n=8, time point 23, in mm2): 41.18
Tumour size AT-3-OVA, mean over all time points (AT3-OVA mammary tumors; C57BL/6 n=8, two-way RM ANOVA column mean, in mm2): 29.53
Tumour growth, single mice (AT3-OVA mammary tumors; day 6 post injection (first dose), 10 mg/kg i.v., in mm2): 22.54 and 20.7 and 19.36 and 20.25 and 18.49 and 22.09 and 26.95 and 24
Tumour growth, single mice (AT3-OVA mammary tumors; day 8 post injection, 10 mg/kg i.v., in mm2): 22.08 and 20.7 and 20.68 and 20.91 and 19.78 and 21.15 and 25.97 and 24.48
Tumour growth, single mice (AT3-OVA mammary tumors; day 10 post injection, 10 mg/kg i.v., in mm2): 27.56 and 22.95 and 17.6 and 23.1 and 20.64 and 23.04 and 23.65 and 27.84
Tumour growth, single mice (AT3-OVA mammary tumors; day 15 post injection, 10 mg/kg i.v., in mm2): 37.95 and 25.76 and 21.12 and 24.36 and 20.64 and 28.62 and 35.75 and 38.5
Tumour growth, single mice (AT3-OVA mammary tumors; day 23 post injection, 10 mg/kg i.v., in mm2): 43.55 and 30 and 34.02 and 32.76 and 29.15 and 54.51 and 48.18 and 57.27
AT3 tumor growth in Lck-Cre;Ptpn2fl/fl mice (AT3 mammary tumors): further suppressed tumor growth
